Laboratory results as given in ChEMBL document CHEMBL4808208, “Hepatoselective Dihydroquinolizinone Bis-acids for HBsAg mRNA Degradation” (ACS Med Chem Lett, 2021).
pIC50: −log10 of the molar value. Where “and” joins values, the source holds several entries; their conditions need not be identical. Equal values may be shown once. Calls of active or inactive are those of the source. The rule behind the calls is not given here.

Key:
[1] = Apparent permeability across apical to basolateral side in MDCK-MDR1 cells at 1 uM measured after 120 mins by LC-MS/MS analysis; format: ADME, cell-based, Canis lupus familiaris; settings: dog
[2] = Cytotoxicity against human HepG2.2.15 cells assessed as reduction in cell viability measured after 4 days by CellTiter-Glo reagent based assay; design: species or system HepG2 2.2.15; settings: time 4 day
OATP1B3 = assay: Ratio of drug uptake in HEK293 cells transfected with OATP1B3 (unknown origin) in absence of transporter inhibitor, estradiol-17beta-glucuronide to drug uptake in HEK293 cells in absence of transporter inhibitor, estradiol-17beta-glucuronide by LC-MS/MS analysis; format: ADME, cell-based; settings: human, HEK293 cells transfected with OATP1B3 versus HEK293 cells
Hepatitis B virus = assay: Antiviral activity against Hepatitis B virus infected in human HepG2.2.15 cells assessed as reduction in HBV pregenomic mRNA level at 1 uM measured after 5 days by Northern blot analysis; format: functional, organism-based; settings: time 5.0 day
[3] = Efflux ratio of apparent permeability in human Caco-2 cells at 10 uM incubated for 1 hr; format: ADME, cell-based
Cytochrome P450 2A6 = biological target: T1, Cytochrome P450 2A6 (Homo sapiens, UniProt P11509); assay: Inhibition of CYP2A6 in human liver microsomes using coumarin as substrate preincubated for 5 mins followed by NADPH addition by LC-MS/MS analysis; format: ADME
T1 sequence (P11509 whole entry): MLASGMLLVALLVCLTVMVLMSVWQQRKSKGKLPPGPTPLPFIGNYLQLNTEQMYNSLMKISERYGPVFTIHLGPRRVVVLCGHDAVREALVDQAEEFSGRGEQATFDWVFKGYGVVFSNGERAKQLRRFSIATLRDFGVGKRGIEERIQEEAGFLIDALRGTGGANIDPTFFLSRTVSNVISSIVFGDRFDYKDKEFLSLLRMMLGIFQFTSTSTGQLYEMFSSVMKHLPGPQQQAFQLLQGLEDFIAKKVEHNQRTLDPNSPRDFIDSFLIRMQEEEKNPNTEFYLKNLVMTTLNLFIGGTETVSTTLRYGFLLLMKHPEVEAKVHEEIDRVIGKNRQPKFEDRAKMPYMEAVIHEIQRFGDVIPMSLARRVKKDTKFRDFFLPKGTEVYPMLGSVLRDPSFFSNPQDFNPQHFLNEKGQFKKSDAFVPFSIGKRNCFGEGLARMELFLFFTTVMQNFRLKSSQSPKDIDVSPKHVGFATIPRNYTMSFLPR

Cytochrome P450 2E1 = Cytochrome P450 2E1 (Homo sapiens, UniProt P05181); assay: Inhibition of CYP2E1 in human liver microsomes using chlorzoxazone as substrate preincubated for 5 mins followed by NADPH addition by LC-MS/MS analysis; format: ADME
[4] = Clearance in CD-1 mouse at 3 mg/kg, iv measured for 24 hrs by LC-MS/MS analysis; format: ADME, organism-based; settings: in vivo
[5] = Half life in CD-1 mouse liver at 8 mg/kg, po measured for 24 hrs by LC-MS/MS analysis; format: ADME, organism-based
[6] = AUC (last) in CD-1 mouse plasma at 8 mg/kg, po measured for 24 hrs by LC-MS/MS analysis; format: ADME, organism-based; design: route oral, dose 8 mg/kg, time 24 hrs
[7] = AUC (last) in CD-1 mouse plasma at 3 mg/kg, iv measured for 24 hrs by LC-MS/MS analysis; format: ADME, organism-based; design: route intravenous, time 24 hrs, dose 3 mg/kg
[8] = Oral bioavailability in CD-1 mouse plasma at 8 mg/kg measured for 24 hrs by LC-MS/MS analysis; format: ADME, organism-based
[9] = Drug concentration in CD-1 mouse liver at 8 mg/kg, po measured after 15 mins by LC-MS/MS analysis; format: ADME, organism-based; settings: read-out: Ct
[10] = Drug concentration in CD-1 mouse liver at 8 mg/kg, po measured after 1 hr by LC-MS/MS analysis; format: ADME, organism-based; settings: read-out: Ct
[11] = Drug concentration in CD-1 mouse liver at 8 mg/kg, po measured after 2 hrs by LC-MS/MS analysis; format: ADME, organism-based; settings: read-out: Ct
[12] = Drug concentration in CD-1 mouse liver at 8 mg/kg, po measured after 4 hrs by LC-MS/MS analysis; format: ADME, organism-based; settings: read-out: Ct
[13] = Drug concentration in CD-1 mouse liver at 8 mg/kg, po measured after 6 hrs by LC-MS/MS analysis; format: ADME, organism-based; settings: read-out: Ct
[14] = biological target: T2, Solute carrier organic anion transporter family member 1B1 (Homo sapiens, UniProt Q9Y6L6); assay: Substrate activity at OATP1B1 (unknown origin) expressed in HEK293 cells assessed as ratio of drug uptake in absence of transporter inhibitor,estradiol-17beta-glucuronide to drug uptake in presence of transporter inhibitor, estradiol-17beta-glucuronide by LC-MS/MS analysis; format: ADME, cell-based
T2 sequence (Q9Y6L6 whole entry): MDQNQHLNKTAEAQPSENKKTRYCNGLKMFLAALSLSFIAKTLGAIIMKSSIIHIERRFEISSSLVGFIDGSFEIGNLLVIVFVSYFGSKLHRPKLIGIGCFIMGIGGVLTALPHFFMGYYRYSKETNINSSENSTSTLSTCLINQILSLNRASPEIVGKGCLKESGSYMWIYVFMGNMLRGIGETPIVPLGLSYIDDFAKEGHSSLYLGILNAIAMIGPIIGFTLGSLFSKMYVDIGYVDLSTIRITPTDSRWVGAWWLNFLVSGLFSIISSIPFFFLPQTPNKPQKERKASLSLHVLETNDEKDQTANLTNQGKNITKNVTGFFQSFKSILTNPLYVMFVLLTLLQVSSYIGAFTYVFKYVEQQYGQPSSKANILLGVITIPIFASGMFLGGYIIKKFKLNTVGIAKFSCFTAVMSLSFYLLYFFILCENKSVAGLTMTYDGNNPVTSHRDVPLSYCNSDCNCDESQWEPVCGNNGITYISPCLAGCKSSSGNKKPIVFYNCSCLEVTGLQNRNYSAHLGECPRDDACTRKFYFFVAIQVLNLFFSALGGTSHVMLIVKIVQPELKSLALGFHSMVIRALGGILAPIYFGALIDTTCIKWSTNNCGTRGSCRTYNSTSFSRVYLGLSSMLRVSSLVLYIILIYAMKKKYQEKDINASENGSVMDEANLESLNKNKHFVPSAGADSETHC

Chain of Cytochrome P450 2E1 (P05181 whole entry): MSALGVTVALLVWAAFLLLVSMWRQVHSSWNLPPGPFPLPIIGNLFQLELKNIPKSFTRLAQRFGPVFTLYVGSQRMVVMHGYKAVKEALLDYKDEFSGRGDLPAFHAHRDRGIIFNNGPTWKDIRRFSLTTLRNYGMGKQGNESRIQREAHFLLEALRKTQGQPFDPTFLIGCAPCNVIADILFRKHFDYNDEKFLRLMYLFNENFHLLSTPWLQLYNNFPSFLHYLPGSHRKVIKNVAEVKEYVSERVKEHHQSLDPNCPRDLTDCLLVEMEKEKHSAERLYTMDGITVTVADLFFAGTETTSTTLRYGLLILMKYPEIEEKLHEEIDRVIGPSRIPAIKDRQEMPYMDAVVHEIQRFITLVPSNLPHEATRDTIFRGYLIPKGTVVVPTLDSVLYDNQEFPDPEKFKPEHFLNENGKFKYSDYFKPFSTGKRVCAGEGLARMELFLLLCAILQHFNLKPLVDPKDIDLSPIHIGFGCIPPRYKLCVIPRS

- Papp A→B at 2 h, 1 µM [1]: 0.38 ×10⁻⁶ cm/s
- uptake ratio (OATP1B3): 24.8
- efflux ratio at 1 h, 10 µM [3]: 5.3
- pIC50 (Cytochrome P450 2A6): < 5.00
- pIC50 (Cytochrome P450 2E1): < 5.00
- clearance [4]: 198 mL/min/kg
- half-life [5]: 3.54 h
- AUC(0-t) at 24 h [6]: 34.7 ng·h/mL
- AUC(0-t) at 24 h [7]: 255 ng·h/mL
- bioavailability [8]: 5.1%
- concentration at 0.25 h [9]: 333 ng/mL and 730 nM
- concentration at 1 h [10]: 300 ng/mL and 660 nM
- concentration at 2 h [11]: 261 ng/mL and 570 nM
- concentration at 4 h [12]: 138 ng/mL and 300 nM
- concentration at 6 h [13]: 76 ng/mL and 170 nM
- Ratio [14]: 11.17
Compound: COc1cc2c(cc1OCCCCCCC(=O)O)C[C@@H](C(C)C)n1cc(C(=O)O)c(=O)cc1-2
- CC50 at 96 h [2]: > 10 µM
- Activity (Hepatitis B virus): Active
